Measurements published in patent US12527755B2, “Formulations containing acetaminophen and sulfoalkyl ether cyclodextrin” (CyDex Pharmaceuticals, Inc., priority 2016, dated 2026).
In brackets after ≈: the same amount, converted by molar mass.

Assay: physchem
Details: for solubility: pH 7, aqueous buffer, thermodynamic from solid
Procedure: The acetaminophen solubility was measured at 25° C. and 5° C.

solubility (5 °C): ~8.86 mg/mL (≈ 58.6 mM)
solubility (25 °C): ~16 mg/mL (≈ 106 mM)
CAPTISOL® concentration with which a 10 mg/ml acetaminophen solution can be made (pH 7): less than 0.05 M
SMILES: CC(=O)Nc1ccc(O)cc1 [acetaminophen, N-acetyl-p-aminophenol]
